# Measurements as given in US20160075653A1, “NEMATICIDAL N-(PHENYLCYCLOALKYL)CARBOXAMIDES AND N-(PHENYLCYCLOALKYL)THIOCARBOXAMIDES” (BAYER CROPSCIENCE AKTIENGESELLSCHAFT, priority 2013, published 2016).
# Experiments:
# [1] = Measurement of log P values by HPLC on reversed phase columns (methods [a] pH 2.3, [b] pH 2.7, [c] pH 7.8); type: physicochemical
# In short: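 Determined per EEC Directive 79/831 Annex V.A8 by reversed-phase HPLC, 10-95% acetonitrile gradient: [a] pH 2.3, 0.1% phosphoric acid; [b] LC-MS, pH 2.7, 0.1% formic acid; [c] LC-MS, pH 7.8, 0.001 molar ammonium hydrogen carbonate. Calibrated with C3-C16 alkan-2-ones by retention-time interpolation.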
# Meloidogyne incognita = Meloidogyne incognita test (MELGIN), gall formation on salad seedlings; type: in vivo; conditions: application rate 20 ppm, after 14 days
# Procedure: Meioidovnve incomita—Test (MELGIN)
# Solvent: 125.0 parts by weight of acetone
# To produce a suitable preparation of active compound, 1 part by weight of active compound is mixed with the stated amount of solvent, and the concentrate is diluted with water to the desired concentration.
# Vessels are filled with sand, a solution of the active ingredient, a suspension containing eggs and larvae of the southern root-knot nematode (Meloidogyne incognita) and salad seeds. The salad seeds germinate and the seedlings grow. Galls develop in the roots.
# After 14 days the nematicidal activity is determined on the basis of the percentage of gall formation. 100% means that no galls were found; 0% means the number of galls found on the roots of the treated plants was equal to that in untreated control plants.
# [2] = HPLC reversed phase, method [b] (pH 2.7)
# [3] = HPLC on reversed phase column, method [b], pH 2.7
# [4] = HPLC on reversed phase column, method [c], pH 7.8
Compound,"logP [1, 2]","logP ([1]; HPLC reversed phase, method [c] pH 7.8)",nematicidal activity (percentage of gall formation; 100% = no galls) (Meloidogyne incognita) [%],"logP [1, 3]","logP [1, 4]"
O=C(N[C@@H]1C[C@@H]1c1ccc(Cl)cc1)c1nccnc1C(F)(F)F (relative stereo) [Compound 532],2.68^[b],2.65^[c];,100,–,–
O=C(N[C@@H]1CC[C@@H]1c1c(F)cccc1C(F)(F)F)c1ncccc1Cl (relative stereo) [Compound 537],2.92^[b],–,100,–,–
O=C(N[C@@H]1CC[C@@H]1c1ccccc1Cl)c1ccccc1[N+](=O)[O-] (relative stereo) [Compound 538],2.71^[b],–,100,–,–
O=C(N[C@@H]1CC[C@@H]1c1cc(F)ccc1C(F)(F)F)c1ccccc1[N+](=O)[O-] (relative stereo) [Compound 540],3.07^[b],–,100,–,–
O=C(N[C@@H]1CC[C@@H]1c1cc(F)ccc1C(F)(F)F)c1ccccc1I (relative stereo) [Compound 541],3.52^[b],–,100,–,–
O=C(N[C@@H]1CC[C@@H]1c1c(F)cccc1C(F)(F)F)c1ccccc1I (relative stereo) [Compound 542],3.96^[b],–,100,–,–
O=C(N[C@@H]1CC[C@@H]1c1c(F)cccc1C(F)(F)F)c1ncc(C(F)(F)F)cc1Cl (relative stereo) [Compound 543],4.13^[b],–,90,–,–
O=C(N[C@@H]1CC[C@H]1c1ccccc1Cl)c1sccc1I (relative stereo) [Compound 544],3.86^[b],–,90,–,–
Cc1nc(C(F)(F)F)c(C(=O)N[C@@H]2CC[C@@H]2c2ccccc2Cl)s1 (relative stereo) [Compound 545],3.15^[b],–,100,–,–
O=C(N[C@@H]1CC[C@H]1c1ccccc1Cl)c1nccnc1Cl (relative stereo) [Compound 548],2.81^[b],–,100,–,–
O=C(N[C@@H]1CC[C@@H]1c1cc(F)ccc1C(F)(F)F)c1c(F)cccc1F (relative stereo) [Compound 549],3.22^[b],–,100,–,–
O=C(N[C@@H]1CC[C@@H]1c1cc(F)ccc1C(F)(F)F)c1ccccc1 (relative stereo) [Compound 550],3.15^[b],–,100,–,–
O=C(N[C@@H]1CC[C@@H]1c1c(F)cccc1C(F)(F)F)c1ccccc1 (relative stereo) [Compound 551],3.23^[b],–,100,–,–
O=C(N[C@@H]1CC[C@@H]1c1c(F)cccc1C(F)(F)F)c1ccccc1Cl (relative stereo) [Compound 553],3.42^[b],–,100,–,–
O=C(N[C@@H]1CC[C@@H]1c1ccccc1Cl)c1cccnc1 (relative stereo) [Compound 555],1.18^[b],–,90,–,–
Cn1cc(C(=O)N[C@@H]2CC[C@@H]2c2cc(F)ccc2C(F)(F)F)c(C(F)F)n1 (relative stereo) [Compound 556],2.85^[b],–,90,–,–
O=C(N[C@@H]1C[C@@H]1c1ccc(Cl)cc1Cl)c1ccccc1[N+](=O)[O-] (relative stereo) [Compound 558],2.94^[b],–,100,–,–
O=C(N[C@@H]1CC[C@@H]1c1cc(F)ccc1C(F)(F)F)c1nccnc1Cl (relative stereo) [Compound 559],2.88^[b],–,100,–,–
O=C(N[C@@H]1CC[C@@H]1c1cc(F)ccc1C(F)(F)F)c1ccccc1Br (relative stereo) [Compound 560],3.38^[b],–,100,–,–
O=C(N[C@@H]1CC[C@@H]1c1c(F)cccc1C(F)(F)F)c1ccccc1[N+](=O)[O-] (relative stereo) [Compound 561],3.03^[b],–,100,–,–
O=C(N[C@@H]1CC[C@@H]1c1c(F)cccc1C(F)(F)F)c1ccccc1Br (relative stereo) [Compound 563],3.46^[b],–,100,–,–
O=C(N[C@@H]1CC[C@@H]1c1c(F)cccc1C(F)(F)F)c1c(F)cccc1F (relative stereo) [Compound 564],3.25^[b],–,100,–,–

Compound,"logP [1, 2]","logP ([1]; HPLC reversed phase, method [c] pH 7.8)",nematicidal activity (percentage of gall formation; 100% = no galls) (Meloidogyne incognita) [%],"logP [1, 3]","logP [1, 4]"
O=C(N[C@@H]1C[C@@H]1c1ccc(Cl)cc1Cl)c1nccnc1C(F)(F)F (relative stereo) [Compound 566],3.11^[b],–,90,–,–
O=C(N[C@@H]1C[C@@H]1c1ccc(Cl)cc1Cl)c1nccnc1Cl (relative stereo) [Compound 567],2.75^[b],–,90,–,–
O=C(N[C@@H]1CC[C@@H]1c1cc(F)ccc1C(F)(F)F)c1sccc1I (relative stereo) [Compound 570],3.79^[b],–,100,–,–
O=C(N[C@@H]1CC[C@@H]1c1cc(F)ccc1C(F)(F)F)c1cccnc1Cl (relative stereo) [Compound 571],2.75^[b],–,100,–,–
O=C(N[C@@H]1CC[C@@H]1c1cc(F)ccc1C(F)(F)F)c1cccnc1C(F)(F)F (relative stereo) [Compound 572],3.06^[b],–,100,–,–
Cn1cc(C(=O)N[C@@H]2CC[C@@H]2c2c(F)cccc2C(F)(F)F)c(C(F)F)n1 (relative stereo) [Compound 574],2.91^[b],–,100,–,–
O=C(N[C@@H]1CC[C@@H]1c1c(F)cccc1C(F)(F)F)c1cccnc1Cl (relative stereo) [Compound 575],2.83^[b],–,100,–,–
O=C(N[C@@H]1CC[C@@H]1c1c(F)cccc1C(F)(F)F)c1nccnc1Cl (relative stereo) [Compound 576],3.02^[b],–,100,–,–
O=C(N[C@@H]1CC[C@@H]1c1c(F)cccc1C(F)(F)F)c1cccnc1C(F)(F)F (relative stereo) [Compound 577],3.81^[b],–,100,–,–
O=C(N[C@@H]1CC[C@@H]1c1c(F)cccc1C(F)(F)F)c1sccc1I (relative stereo) [Compound 584],4.00^[b],–,100,–,–
O=C(N[C@@H]1CC[C@@H]1c1c(F)cccc1C(F)(F)F)c1ccccc1C(F)(F)F (relative stereo) [Compound 585],3.60^[b],–,100,–,–
O=C(N[C@@H]1CC[C@@H]1c1cc(F)ccc1C(F)(F)F)c1ccccc1C(F)(F)F (relative stereo) [Compound 586],3.53^[b],–,100,–,–
O=C(N[C@@H]1CC[C@@H]1c1cc(F)ccc1C(F)(F)F)c1cccnc1 (relative stereo) [Compound 587],2.22^[b],–,90,–,–
O=C(N[C@@H]1CC[C@@H]1c1cccc(F)c1C(F)(F)F)c1ccccc1C(F)(F)F (relative stereo) [Compound 589],3.38^[b],–,100,–,–
O=C(N[C@@H]1CC[C@@H]1c1cccc(F)c1C(F)(F)F)c1ccccc1 (relative stereo) [Compound 592],–,–,100,3.01^[b],–
O=C(N[C@@H]1CC[C@@H]1c1cccc(F)c1C(F)(F)F)c1ccc(Cl)cc1Cl (relative stereo) [Compound 594],–,–,90,3.73^[b],–
O=C(N[C@@H]1CC[C@@H]1c1cccc(F)c1C(F)(F)F)c1ccc(Cl)cc1 (relative stereo) [Compound 595],–,–,100,3.47^[b],–
O=C(N[C@@H]1CC[C@@H]1c1cccc(F)c1C(F)(F)F)c1ccccc1I (relative stereo) [Compound 599],–,–,100,3.39^[b],–
O=C(N[C@@H]1CC[C@@H]1c1cccc(F)c1C(F)(F)F)c1ccccc1Cl (relative stereo) [Compound 601],–,–,100,3.23^[b],–
O=C(N[C@@H]1C[C@@H]1c1ccc(Cl)cc1Cl)c1ncccc1Br (relative stereo) [Compound 608],–,–,100,2.98^[b],2.99^[c];
CS(=O)(=O)c1ccccc1C(=O)N[C@@H]1C[C@@H]1c1ccc(Cl)cc1Cl (relative stereo) [Compound 609],–,–,100,2.62^[b],2.61^[c];
